Columns and labels:
GST-Xa-hAAK1 = target: T1, GST-Xa-hAAK1 (Homo sapiens, UniProt Q2M2I8); assay: AAK1 Kinase Assay (Caliper LabChip, fluoresceinated peptide substrate); type: biochemical; conditions: ATP 22 μM
T1 construct: made in house
Method: The assays were performed in U-bottom 384-well plates. The final assay volume was 30 μl prepared from 15 μl additions of enzyme and substrates (fluoresceinated peptide (5-FAM)-Aha-[…]-NH2 and ATP) and test compounds in assay buffer (10 mM Tris-HCL pH 7.4, 10 mM MgCl2, 0.01% Tween-20 and 1.0 mM DTT). The reactions were initiated by the combination of bacterially expressed, GST-Xa-hAAK1 with substrates and test compounds. The reactions were incubated at room temperature for 3 hours and terminated by adding 60 μl of 35 mM EDTA buffer to each sample. The reactions were analyzed on the Caliper LabChip 3000 (Caliper, Hopkinton, Mass.) by electrophoretic separation of the fluorescent substrate and phosphorylated product. […] The final concentration of reagents in the assays are ATP, 22 μM; (5-FAM)-Aha-[…]-NH2, 1.5 μM; GST-Xa-hAAK1, 3.5 nM; and DMSO, 1.6%. Dose response curves were generated to determine the concentration required inhibiting 50% of kinase activity (IC50). Compounds were dissolved at 10 mM in dimethylsulfoxide (DMSO) and evaluated at eleven concentrations. IC50 values were derived by non-linear regression analysis.

AAK1 (full length human) = target: T2, AAK1 (full length human) (Homo sapiens, UniProt Q2M2I8); assay: HEK281 Cell-Based Assay (HEK293F cells transfected with AAK1 and AP2M1; phospho-mu2 Western blot); conditions: 3 h
T2 construct: HA; expressed in transfected cells; host or cells: HEK293F
T2 sequence (Q2M2I8 whole entry): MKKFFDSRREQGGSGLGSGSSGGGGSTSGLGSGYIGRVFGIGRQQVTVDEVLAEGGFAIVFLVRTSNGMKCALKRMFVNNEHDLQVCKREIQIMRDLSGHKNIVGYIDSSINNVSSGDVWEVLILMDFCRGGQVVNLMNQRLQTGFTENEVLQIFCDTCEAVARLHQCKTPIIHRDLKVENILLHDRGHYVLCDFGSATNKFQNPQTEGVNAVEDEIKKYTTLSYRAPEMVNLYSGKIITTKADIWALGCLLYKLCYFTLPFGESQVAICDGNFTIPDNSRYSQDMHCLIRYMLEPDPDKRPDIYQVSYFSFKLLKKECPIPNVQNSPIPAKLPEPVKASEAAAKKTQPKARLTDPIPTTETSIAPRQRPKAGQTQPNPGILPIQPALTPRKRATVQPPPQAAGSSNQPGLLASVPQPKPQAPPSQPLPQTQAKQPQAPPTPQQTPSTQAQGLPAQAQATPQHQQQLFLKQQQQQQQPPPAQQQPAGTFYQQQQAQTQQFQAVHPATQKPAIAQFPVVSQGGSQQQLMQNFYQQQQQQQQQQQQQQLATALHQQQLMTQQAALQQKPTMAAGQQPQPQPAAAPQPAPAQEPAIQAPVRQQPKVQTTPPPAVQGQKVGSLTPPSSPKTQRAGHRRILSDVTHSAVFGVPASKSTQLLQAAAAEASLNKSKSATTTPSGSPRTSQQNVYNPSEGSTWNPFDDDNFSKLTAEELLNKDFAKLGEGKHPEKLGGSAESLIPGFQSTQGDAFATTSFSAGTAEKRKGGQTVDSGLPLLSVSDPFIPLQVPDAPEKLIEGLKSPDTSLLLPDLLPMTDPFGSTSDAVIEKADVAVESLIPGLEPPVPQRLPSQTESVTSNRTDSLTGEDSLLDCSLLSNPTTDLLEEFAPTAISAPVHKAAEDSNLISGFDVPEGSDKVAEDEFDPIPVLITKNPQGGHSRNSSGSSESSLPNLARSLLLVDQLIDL
Method: HEK293F cells were cultured in media containing DMEM (Gibco, cat. #11965), 10% FBS (SAFC Biosciences, cat. #12103C), 1× GPS (glutamine, penicillin and streptomycin). On day one, cells were plated on a 10 cm dish so that they are ˜80% confluent at time of transfection. Roughly 12 million cells were in a 10 cm dish at time of transfection. On day two, each dish was transfected with 48 ug DNA and 144 μl Lipofectamine 2000 (Invitrogen, cat. #11668-019). The DNA was comprised of a mixture (per 10 cm dish) containing 3 ug AAK1/HA/pIRES (full length human, NCBI accession no. NP_055726.2), 45 μg Flag/AP2MI/pcDNA (full length human), and 1.5 ml OPTI-MEM. The Lipofectamine 2000 is made up of a mixture (per 10 cm dish) containing 144 μl Lipofectamine 2000 and 1.5 ml OPTI-MEM. Each mixture was transferred to individual 15 ml tubes and incubated at RT for 5 minutes, and then the two mixes were combined and incubated at RT for 20 minutes. Growth media was then aspirated from each 10 cm plate and replaced with 10 ml of DMEM+10% FBS (no GPS). Finally, 3 ml DNA/Lipofectamine mix was added to each 10 cm dish and mix gently followed by incubate of plate overnight at 37° C. and 5% CO2.
On day three, compounds were diluted in 100% DMSO at 1000× final concentration, followed by 3-fold serial dilutions for a total of 5 concentrations tested. Four compounds were tested per 10 cm dish. One ul of each compound dilution was then pipetted into a deep-well, 96-well plate, followed by addition of 500 μl DMEM+0.5% FBS into each well for a 2× final concentration of each compound. Cells were resuspended in a 10 cm dish by simple pipetting (HEK293 cells come off the plate that easy at this point) and then transferred to a 50 ml conical tube and pelleted by centrifugation at 1000 rpm for 5 min. Cell pellets were then resuspended in 2.75 ml DMEM+0.5% FBS per 10 cm dish and 100 μl of cell suspension transferred into each well of 96-well TC plate. Finally, 100 μl of 2× compound diluted in DMEM+0.5% FBS was then added into wells containing cell suspension for a 1× final concentration. Plates were then incubated at 37° C. and 5% CO2 for 3 hours followed by transferring of cell suspensions from each well into 12-tube PCR strips. The PCR strips were spun in a tip rack at 1000 rpm for 5 minutes to pellet cells and media was then removed by pipetting without disturbing the cell pellet.
To prepare for Western Blot analysis, cell pellets were resuspend in 40 ul 1× LDS-PAGE sample buffer (Invitrogen, cat. #NP0008)+2× Halt phophatase and protease inhibitor cocktail (Thermo Scientific, cat. #1861284), followed by sonicating each with microtip sonicator set at 5 for 8-10 seconds. Five ul of 10× NuPage Sample Reducing Agent (with […]) was to each sample followed by heat denaturing at 70C for 10 min on PCR machine. A total of 10 μl per sample was loaded into each lane of a 4-20% Tris-Glycine Criterion 26-well gel (Biorad, cat. #345-0034) for the phospho-mu2 blot and 10 μl per lane in a 4-12% Bis-Tris (+MES buffer) NuPAGE 26-well gel (Invitrogen, cat. #WG1403BX10) for the mu2 blot. For controls, 2 ng of phospho-mu2 or 20 ng mu2/Flag proteins were loaded in the last well of each gel. After SDS-PAGE, samples on each gel were transferred to PVDF membrane using an iBlot and membranes were blocked for one hour in TBST+5% milk, followed by wash 3× for 5-10 min with TBST. Criterion gels were probed with rabbit anti-phospho-mu2 (1:5000; a rabbit polyclonal antibody produced by New England Peptide and affinity purified at Lexicon) in TBST+5% BSA, whereas, NuPAGE gels were probed with mouse anti-Flag (1:500; Sigma, cat. #F1804) in TBST+5% milk, and these primary antibodies were incubated overnight at 4° C. on a rocker. […]

T1 sequence (Q2M2I8 whole entry): as above

Compound	IC50 (GST-Xa-hAAK1; listed as IC50 ranges) [nM]	also measured
CC(C)C[C@H](N)COc1ccc2c(c1)oc(=O)c1cnccc12 [Example 11, (S)-8-(2-amino-4-methylpentyloxy)-5H-chromeno[3,4-c]pyridin-5-one]		IC50 (GST-Xa-hAAK1; numeric values): 22 nM; IC50 (AAK1 (full length human); numeric values): 38 nM
CC(C)C[C@H](N)COc1ccc2c(c1)OC(C1CC1)c1cnccc1-2 (mixture of isomers) [Example 8, (2S)-1-(5-cyclopropyl-5H-chromeno[3,4-c]-pyridin-8-yloxy)-4-methylpentan-2-amine]	10 to 100	IC50 (AAK1 (full length human); listed as IC50 ranges): 10 to 100 nM
CC(C)C[C@@H](N)COc1ccc2c(c1)OC(C1CC1)c1cnccc1-2 (single isomer, unassigned) [Example 9b]		IC50 (AAK1 (full length human); numeric values): > 300 nM
CC(C)C[C@@H](N)COc1ccc2c(c1)OCc1cnccc1-2 [Example 1, (R)-1-(5H-chromeno[3,4-c]pyridin-8-yloxy)-4-methylpentan-2-amine]		IC50 (GST-Xa-hAAK1; numeric values): 20 nM
COc1c(OC[C@@H](N)CC(C)C)ccc2c1OCc1cnc(NC(C)=O)cc1-2 [Example 37, (S)-N-(8-((2-amino-4-methylpentyl)oxy)-7-methoxy-5H-chromeno[3,4-c]pyridin-2-yl)acetamide]	10 to 100	IC50 (AAK1 (full length human); listed as IC50 ranges): 1 to 10 nM
CC(C)C[C@H](N)COc1cc2c(cc1Cl)-c1ccncc1C(C(F)(F)F)O2 (mixture of isomers) [Example 27, (2S)-1-((9-chloro-5-(trifluoromethyl)-5H-chromeno[3,4-c]pyridin-8-yl)oxy)-4-methylpentan-2-amine]	1 to 10	IC50 (AAK1 (full length human); listed as IC50 ranges): 1 to 10 nM
CC(C)C[C@H](N)COc1ccc2c(c1)OC1(COC1)c1cnccc1-2 [Example 19, (S)-4-methyl-1-(spiro[chromeno[3,4-c]pyridine-5,3′-oxetan]-8-yloxy)pentan-2-amine]	100 to 1000	
CC(C)C[C@H](N)COc1ccc2c(c1)OCc1cnccc1-2 [Example 5, (S)-1-(5H-chromeno[3,4-c]pyridin-8-yloxy)-4-methylpentan-2-amine]		IC50 (GST-Xa-hAAK1; numeric values): 3.3 nM; IC50 (AAK1 (full length human); numeric values): 8.4 nM
CC(C)C[C@H](N)COc1ccc2c(c1)OCc1cnc(NC(=O)C3CC3)cc1-2 [Example 42, (S)-N-(8-(2-amino-4-methylpentyloxy)-5H-chromeno[3,4-c]pyridin-2-yl)cyclopropanecarboxamide]		IC50 (GST-Xa-hAAK1; numeric values): 0.5 nM; IC50 (AAK1 (full length human); numeric values): 2.1 nM
Cc1cc2c(cn1)COc1cc(OC[C@@H](N)CC(C)C)ccc1-2 [Example 39, (S)-4-methyl-1-((2-methyl-5H-chromeno[3,4-c]pyridin-8-yl)oxy)pentan-2-amine]	100 to 1000	
CC(=O)Nc1nccc2c1COc1cc(OC[C@@H](N)CC(C)C)ccc1-2 [Example 12, (S)-N-(8-(2-amino-4-methylpentyloxy)-5H-chromeno[3,4-c]pyridin-4-yl)acetamide]	10 to 100	IC50 (AAK1 (full length human); listed as IC50 ranges): 10 to 100 nM
CC(C)C[C@H](N)COc1ccc2c(c1)OC(C)c1cnccc1-2 (single isomer, unassigned) [Example 6a]		IC50 (GST-Xa-hAAK1; numeric values): 27 nM; IC50 (AAK1 (full length human); numeric values): 25 nM
CC(=O)Nc1cc2c(cn1)C(C)Oc1cc(OC[C@@H](N)CC(C)C)ccc1-2 (stereo partly drawn) [Example 30, N-(8-(((S)-2-amino-4-methylpentyl)oxy)-5-methyl-5H-chromeno[3,4-c]pyridin-2-yl)acetamide]	10 to 100	
CC[C@H](N)COc1ccc2c(c1)OCc1cnccc1-2 [Example 4, (S)-1-(5H-chromeno[3,4-c]pyridin-8-yloxy)butan-2-amine]	10 to 100	
Cc1nccc2c1c(=O)oc1cc(OC[C@@H](N)CC(C)C)ccc12 [Example 34, (S)-8-((2-amino-4-methylpentyl)oxy)-4-methyl-5H-chromeno[3,4-c]pyridin-5-one]	10 to 100	
CC(=O)Nc1cc2c(cn1)COc1cc(OC[C@H](N)CC(C)C)ccc1-2 [Example 40, (R)-N-(8-(2-amino-4-methylpentyloxy)-5H-chromeno[3,4-c]pyridin-2-yl)acetamide]	1 to 10	
CC(C)C[C@H](N)COc1cc2c(cc1C#N)-c1ccncc1CO2 [Example 23, (S)-8-(2-amino-4-methylpentyloxy)-5H-chromeno[3,4-c]pyridine-9-carbonitrile]	1 to 10	
CC(C)C[C@H](N)COc1ccc2c(c1)OC(C)c1cnccc1-2 (mixture of isomers) [Example 6, (2S)-4-methyl-1-(5-methyl-5H-chromeno[3,4-c]pyridin-8-yloxy)pentan-2-amine]	1 to 10	
N[C@@H](COc1ccc2c(c1)OCc1cnccc1-2)Cc1ccccc1 [Example 2, (R)-1-(5H-chromeno[3,4-c]pyridin-8-yloxy)-3-phenylpropan-2-amine]	100 to 1000	
CC(C)C[C@H](N)COc1ccc2c(c1)OC(C)c1cnc(N)cc1-2 (stereo partly drawn) [Example 29, 8-(((S)-2-amino-4-methylpentyl)oxy)-5-methyl-5H-chromeno[3,4-c]pyridin-2-amine]	10 to 100	
CC[C@@H](N)COc1ccc2c(c1)OCc1cnccc1-2 [Example 3, (R)-1-(5H-chromeno[3,4-c]pyridin-8-yloxy)butan-2-amine]	100 to 1000	
CC(C)C[C@H](N)COc1ccc2c(c1)OC(CO)(CCl)c1cnccc1-2 (stereo partly drawn) [Example 20, (8-(((S)-2-amino-4-methylpentyl)oxy)-5-(chloromethyl)-5H-chromeno[3,4-c]pyridin-5-yl)methanol]	10 to 100	
CC(C)C[C@@H](N)COc1ccc2c(c1)OC(C1CC1)c1cnccc1-2 (some centres unmarked) [Example 9]	100 to 1000	

Second part, led by results:

IC50 (GST-Xa-hAAK1; listed as IC50 ranges) [nM]	Compound	also measured
100 to 1000	CC(C)C[C@H](N)COc1ccc2c(c1)OC(C1CC1)c1cnccc1-2 (single isomer, unassigned) [Example 8a]	
1 to 10	CC(C)C[C@H](N)COc1cc2c(cc1I)-c1ccncc1C(C)O2 (single isomer, unassigned) [Example 31a]	
10 to 100	CCC1Oc2cc(OC[C@@H](N)CC(C)C)ccc2-c2ccncc21 (single isomer, unassigned) [Example 10a]	IC50 (AAK1 (full length human); listed as IC50 ranges): 10 to 100 nM
10 to 100	CCC1Oc2cc(OC[C@@H](N)CC(C)C)ccc2-c2ccncc21 (single isomer, unassigned) [Example 10b]	
1 to 10	CC(C)C[C@H](N)COc1cc2c(cc1I)-c1ccncc1C(C)O2 (single isomer, unassigned) [Example 31b]	
10 to 100	CC(C)C[C@@H](N)COc1ccc2c(c1)OC(C)c1cnccc1-2 (single isomer, unassigned) [Example 7b]	
